One assay has as its target T1, BRD4 BD1 (Homo sapiens, UniProt O60885).
T1 construct: made in house
Nature of the assay: AlphaScreen binding assay, BRD4 Bromodomain 1. In outline:
(§1)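 Compound dilution series were mixed with His-tagged BRD4 bromodomain and biotinylated tetra-acetylated H4 (1-21) peptide at pH 7.3 (BD1 and peptide at 50 nM, BD2 and peptide at 100 nM). Donor and acceptor beads were then added, and plates were equilibrated at least 1 h before reading. IC50 values were fitted with a four-parameter logistic model.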
On the technique in general: In Alpha technology, singlet oxygen from a donor bead excites a nearby acceptor bead.

Another assay has as its target T2, BRD4 BD2 (Homo sapiens, UniProt O60885).
T2 construct: made in house
Nature of the assay: AlphaScreen binding assay, BRD4 Bromodomain 2. In outline:
as §1

The next assay concerns MV4-11 cells. Nature of the assay: Oncology cell growth assay (3-day proliferation, CellTiter-Glo). The assay is classed as cell-based. As to conditions: Homo sapiens, AML cell line MV4-11, 72 hours, compounds grouped by IC50 range, read-out: MV4-11 IC50 (inhibition of proliferation, gIC50). A digest of the protocol: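 Compounds were serially diluted 3-fold in DMSO, giving final well concentrations from 10 down to 0.0045 μM. MV4-11 cells were then seeded at 3000 cells/well in RPMI 1640 with 10% FBS and incubated 72 hours. CellTiter-Glo signal was measured and gIC50 obtained by four-parameter logistic regression.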

Like-named read-outs stand apart in the source and are kept apart here. Some results are limits rather than exact numbers.

Regarding `CC(=O)N1c2ccc(-c3cnn(C4CCNCC4)c3)cc2N(C(=O)Oc2ccc(F)cc2F)C[C@@H]1C` [Example I-191, 2,4-difluorophenyl (S)-4-acetyl-3-methyl-7-(1-(piperidin-4-yl)-1H-pyrazol-4-yl)-3,4-dihydroquinoxaline-1(2H)-carboxylate], the IC50 at BRD4 BD1 is 100 to 1000 nM; on BRD4 BD2, below 50 nM; in the assay with MV4-11 cells it was 100 to 500 nM.

In the case of `CC(=O)N1c2ccc(-c3cnn(C4CC4)c3)cc2N(C(=O)Oc2cccc(C)c2)C[C@@H]1C` [Example I-517], the IC50 at BRD4 BD1 is 100 to 1000 nM; on BRD4 BD2 it was 50 to 500 nM; in the assay on MV4-11 cells (MV4-11, 72 h), below 100 nM.

`CC(=O)N1c2ccc(-c3ccc4c(cnn4C)c3)cc2N(C(=O)c2ccco2)C[C@@H]1C` [Example I-852]: the IC50 at BRD4 BD1 lay within 100 to 1000 nM; on BRD4 BD2, 50 to 500 nM; with MV4-11 cells (MV4-11, 72 h), 100 to 500 nM.

On to `CC(=O)N1c2ccc(-c3cnn(CCO)c3)cc2N(C(=O)OC(C)C)C[C@@H]1C` [Example I-12, (S)-isopropyl 4-acetyl-7-(1-(2-hydroxyethyl)-1H-pyrazol-4-yl)-3-methyl-3,4-dihydroquinoxaline-1(2H)-carboxylate], for which the IC50 at BRD4 BD1 was below 100 nM; at BRD4 BD2, below 50 nM; in the assay on MV4-11 cells (MV4-11, 72 h), 100 to 500 nM.

Regarding `CC(=O)N1c2ccc(-c3cnn(C4COC4)c3)cc2N(C(=O)Oc2ccccc2)C[C@@H]1C` [Example I-88, (S)-phenyl 4-acetyl-3-methyl-7-(1-(oxetan-3-yl)-1H-pyrazol-4-yl)-3,4-dihydroquinoxaline-1(2H)-carboxylate], the IC50 is 100 to 1000 nM on BRD4 BD1; below 50 nM on BRD4 BD2; below 100 nM with MV4-11 cells (MV4-11, 72 h).

For `CC(=O)N1c2ccc(-c3cn[nH]c3)cc2N(C(=O)Oc2ccccc2)C[C@@H]1C` [Example I-16, (S)-phenyl 4-acetyl-3-methyl-7-(1H-pyrazol-4-yl)-3,4-dihydroquinoxaline-1(2H)-carboxylate], the IC50 on BRD4 BD1 is 100 to 1000 nM; at BRD4 BD2 it was below 50 nM; in the assay with MV4-11 cells (MV4-11, 72 h), below 100 nM.

As for `CC(=O)N1c2ccc(-c3c[nH]nc3C)cc2N(C(=O)OC(C)C)CC1C` (stereo not drawn) [Example I-337], the IC50 on BRD4 BD1 was 100 to 1000 nM; on BRD4 BD2, above 500 nM; with MV4-11 cells (MV4-11, 72 h) it was above 500 nM.

Take `CC(=O)N1c2ccc(-c3cnn(Cc4ccccn4)c3)cc2N(C(=O)OC(C)C)C[C@@H]1C` [Example I-120, (S)-isopropyl 4-acetyl-3-methyl-7-(1-(pyridin-2-ylmethyl)-1H-pyrazol-4-yl)-3,4-dihydroquinoxaline-1(2H)-carboxylate]: the IC50 on BRD4 BD1 is 100 to 1000 nM; on BRD4 BD2, below 50 nM; in the assay on MV4-11 cells (MV4-11, 72 h) it was 100 to 500 nM.

For `CC(=O)N1c2ccc(-c3cnn(CCC(N)=O)c3)cc2N(C(=O)OC(C)C)C[C@@H]1C` [Example I-606], the IC50 on BRD4 BD1 is 100 to 1000 nM; on BRD4 BD2 it was below 50 nM; with MV4-11 cells (MV4-11, 72 h) it was 100 to 500 nM.

Regarding `COC(=O)N1c2ccc(-c3ccc(N4CCS(=O)(=O)CC4)cc3)cc2N(C(=O)OC(C)C)C[C@@H]1C` [Example I-483], the IC50 was 100 to 1000 nM at BRD4 BD1; 50 to 500 nM at BRD4 BD2; above 500 nM with MV4-11 cells (MV4-11, 72 h).

For `CC(=O)N1c2ccc(-c3cnn(C(F)F)c3)cc2N(C(=O)OC(C)C)C[C@@H]1C` [Example I-336], the IC50 on BRD4 BD1 is 100 to 1000 nM; on BRD4 BD2, 50 to 500 nM; in the assay on MV4-11 cells (MV4-11, 72 h), above 500 nM.

Regarding `CC(=O)N1c2ccc(-c3cccc(S(C)(=O)=O)c3)cc2N(C(=O)C2CCC2)C[C@@H]1C` [Example I-1051], the IC50 at BRD4 BD1 was 1000 to 10000 nM; on BRD4 BD2, 50 to 500 nM; in the assay on MV4-11 cells (MV4-11, 72 h), above 500 nM.

Turning to `COC(=O)N1c2ccc(-c3ccc(C(=O)N(C)CC(=O)N(C)C)cc3)cc2N(C(=O)OC(C)C)C[C@@H]1C` [Example I-561], the IC50 on BRD4 BD1 is below 100 nM; at BRD4 BD2, 50 to 500 nM; with MV4-11 cells (MV4-11, 72 h), 100 to 500 nM.

`CC(=O)N1c2ccc(-c3cnn(CCO)c3)cc2N(c2nn(C)c3cc(F)ccc23)C[C@@H]1C` [Example I-188, 1-[(2S)-4-(6-fluoro-1-methyl-1H-indazol-3-yl)-6-[1-(2-hydroxyethyl)-1H-pyrazol-4-yl]-2-methyl-1,2,3,4-tetrahydroquinoxalin-1-yl]ethan-1-one]: the IC50 on BRD4 BD1 is 100 to 1000 nM; at BRD4 BD2, below 50 nM; in the assay on MV4-11 cells (MV4-11, 72 h), 100 to 500 nM.

Regarding `CCS(=O)(=O)Nc1ccc(-c2ccc3c(c2)N(C(=O)C2CC2)C[C@H](C)N3C(C)=O)cc1` [Example I-1135], the IC50 at BRD4 BD1 lay within 100 to 1000 nM; on BRD4 BD2, 50 to 500 nM; in the assay with MV4-11 cells (MV4-11, 72 h) it was 100 to 500 nM.

As to `CC(=O)N1c2ccc(-c3cnn(CC(C)(C)F)c3)cc2N(C(=O)OC(C)C)C[C@@H]1C` [Example I-140, (S)-isopropyl 4-acetyl-7-(1-(2-fluoro-2-methylpropyl)-1H-pyrazol-4-yl)-3-methyl-3,4-dihydroquinoxaline-1(2H)-carboxylate], the IC50 on BRD4 BD1 is 100 to 1000 nM; on BRD4 BD2 it was 50 to 500 nM; in the assay with MV4-11 cells (MV4-11, 72 h), 100 to 500 nM.

For the compound `CC(=O)N1c2ccc(-c3cnn(C(C)C)c3)cc2N(C(=O)C2CC2)C[C@@H]1C` [Example I-647], the IC50 at BRD4 BD1 was 100 to 1000 nM; at BRD4 BD2, 50 to 500 nM; in the assay with MV4-11 cells (MV4-11, 72 h) it was above 500 nM.

With `CC(=O)N1c2ccc(-c3ccc(NC(=O)N4CCOCC4)cc3)cc2N(C(=O)c2ccco2)C[C@@H]1C` [Example I-285], the IC50 at BRD4 BD1 is 1000 to 10000 nM; on BRD4 BD2, below 50 nM; in the assay on MV4-11 cells (MV4-11, 72 h) it was 100 to 500 nM.

For the compound `CC(=O)N1c2ccc(-c3ccc(N4CCCS4(=O)=O)cc3)cc2N(C(=O)OC2CC(F)(F)C2)C[C@@H]1C` [Example I-29, 3,3-difluorocyclobutyl (3S)-4-acetyl-7-[4-(1,1-dioxo-1λ^6,2-thiazolidin-2-yl)phenyl]-3-methyl-1,2,3,4-tetrahydroquinoxaline-1-carboxylate], the IC50 on BRD4 BD1 is 100 to 1000 nM; at BRD4 BD2, above 500 nM; with MV4-11 cells (MV4-11, 72 h), above 500 nM.

For the compound `CC(=O)N1c2ccc(-c3cnn(C4CC4)c3)cc2N(C(=O)OC2CC(F)(F)C2)C[C@@H]1C` [Example I-26, (S)-3,3-difluorocyclobutyl 4-acetyl-7-(1-cyclopropyl-1H-pyrazol-4-yl)-3-methyl-3,4-dihydroquinoxaline-1(2H)-carboxylate], the IC50 on BRD4 BD1 was in the range of 100 to 1000 nM; at BRD4 BD2, 50 to 500 nM; with MV4-11 cells (MV4-11, 72 h), 100 to 500 nM.

As for `CC(=O)N1c2ccc(-c3cccc(S(N)(=O)=O)c3)cc2N(C(=O)C2CCC2)C[C@@H]1C` [Example I-1040], the IC50 was 1000 to 10000 nM at BRD4 BD1; below 50 nM on BRD4 BD2; 100 to 500 nM in the assay with MV4-11 cells (MV4-11, 72 h).

Regarding `CC(=O)N1c2ccc(-c3ccc(S(=O)(=O)N(C)C)cc3)cc2N(C(=O)c2ccco2)C[C@@H]1C` [Example I-277], the IC50 was 1000 to 10000 nM at BRD4 BD1; below 50 nM at BRD4 BD2; 100 to 500 nM with MV4-11 cells (MV4-11, 72 h).

Regarding `CC(=O)N1c2ccc(-c3cccc(NS(=O)(=O)N(C)C)c3)cc2N(C(=O)OC2CCOCC2)C[C@@H]1C` [Example I-1274], the IC50 at BRD4 BD1 was 100 to 1000 nM; at BRD4 BD2 it was 50 to 500 nM; in the assay with MV4-11 cells (MV4-11, 72 h) it was 100 to 500 nM.

Consider `CC(=O)N1c2ccc(-c3cc[nH]n3)cc2N(C(=O)c2ccco2)C[C@@H]1C` [Example I-14, (S)-1-(4-(furan-2-carbonyl)-2-methyl-6-(1H-pyrazol-3-yl)-3,4-dihydro-quinoxalin-1(2H)-yl)ethanone], for which the IC50 is 1000 to 10000 nM at BRD4 BD1; below 50 nM at BRD4 BD2; 100 to 500 nM with MV4-11 cells (MV4-11, 72 h).
